According to ChEMBL document CHEMBL3637782, “GSK Tres Cantos Follow-up TB Screening Data” (2016):
In brackets after ≈: the same amount, converted by molar mass.

Legend:
[1] = GSK_TB: AVG_CHROM_LOGP; format: physicochemical
[2] = test system: Mycobacterium tuberculosis H37Rv; assay: GSK_TB: Minimum inhibitory concentration against H37Rv stain of Mycobacterium tuberculosis using MABA method; format: functional; details: ATCC25618
[3] = test system: Mycobacterium tuberculosis H37Rv; assay: GSK_TB: Growth inhibition of non-replicating Mycobacterium tuberculosis (pXC50); format: functional, ATCC25618
[4] = GSK_TB: Kinetic solubility of the compound in phosphate buffered saline at pH 7.4 after 1 hr by CLND method; format: physicochemical
[5] = GSK_TB: Lipophilicity, log D of the compound at pH 7.4 by ChromlogD analysis; format: physicochemical; details: buffer
[6] = test system: Mycobacterium tuberculosis H37Rv; assay: GSK_TB: Inhibition of the intracellular growth of Mycobacterium tuberculosis (pXC50); format: functional, ATCC25618
[7] = test system: HepG2; assay: GSK_TB: The cytotoxicity against HepG2 cells expressed as IC50; format: functional, cell-based; details: Homo sapiens

Row | SMILES | Lipophilicity [1] | MIC [2] | pXC50 [3] | solubility kinetic at 1 h [4] | Lipophilicity [5] | pXC50 [6] | IC50 [7]
1 | N#Cc1cc(C(F)(F)F)c2nc(C(=O)NCc3cccs3)c(Cl)n2c1 | 5.4382 | 10 µM (≈ 3.85 µg/mL) | 5.2 | 72 µg/mL (≈ 187 µM) | 5.21 | 6.1 | > 100 µM
2 | Nc1ccccc1Nc1ccc(Cl)cc1 | 5.9114 | 2 µM (≈ 0.437 µg/mL) | 4.5 | 59 µg/mL (≈ 270 µM) | 5.76 | 7.8 | 79 µM
3 | COc1ccc2nccc(NC(=O)C3CCN(CCc4ccc(Cl)cc4)CC3)c2n1 | – | 0.2 µM (≈ 0.085 µg/mL) | 5.1 | 4 µg/mL (≈ 9.41 µM) | 5.49 | 6.6 | > 100 µM
4 | FC(F)(F)c1nnc2ccc(Sc3nnc(-c4ccco4)o3)nn12 | 3.8715 | 5.6 µM (≈ 1.98 µg/mL) | 4.5 | 125 µg/mL (≈ 353 µM) | 3.78 | 5.4 | 32 µM
5 | CN(Cc1ccc(Cl)cc1)C(=O)CCc1nc2ccccc2oc1=O | 6.0093 | 3.9 µM (≈ 1.39 µg/mL) | 4.9 | 127 µg/mL (≈ 356 µM) | 5.86 | <4.3 | > 100 µM
6 | O=C(NCc1ccco1)N1CCN(Cc2cccs2)CC1 | 3.5288 | 2.5 µM (≈ 0.764 µg/mL) | – | ≥ 105 µg/mL | 3.53 | 5.4 | > 100 µM
7 | COc1ccc(Nc2ncccc2N)cc1 | 1.44 | 5.6 µM (≈ 1.21 µg/mL) | – | 18 µg/mL (≈ 83.6 µM) | 1.45 | 6.2 | 63 µM
